# Source: US9617216B2, “Antifungal oxodihydropyridinecarbohydrazide derivative” (Daewoong Pharmaceutical Co., Ltd., priority 2013, dated 2017)
# Legend:
# Assay type in all cases: cell-based
# [1] = tested on: Candida albicans; assay: In vitro antifungal activity test (MIC), Candida albicans; conditions: concentration at which growth is inhibited by 80% vs negative control, 35° C., 24 hours, RPMI 1640, alama blue; for MIC80: Candida albicans
# [2] = tested on: Candida albicans; assay: In vitro fungicidal activity test (MFC, minimum fungicidal concentration); conditions: minimum concentration with no fungal growth, Sabouraud dextrose agar plate, 35° C., 48 hours, naked eye; for MFC: Candida albicans
# Protocol: As samples of fungicidal agents, 10 mM stock solutions were diluted 10-fold by adding with RPMI 1640 medium, followed by a 5-fold serial dilution, and used as the highest concentration for evaluation of antifungal activity (MIC). The samples with the highest concentration of the fungicidal agents were treated with a 2-fold serial dilution into 11 different concentrations, and the final concentrations were determined by mixing with the strains at a 1:1 ratio. In particular, the concentration of dimethylsulfoxide used as an excipient was made to a final 1% (VN). The evaluations of the fungicidal activity of Candida albicans were performed using a test plate already completed of antifungal activity, from the highest concentration of a given sample to the concentration right next to the concentration determined to be MIC. Test solutions at each concentration were pipetted about 5 times, all were collected (about a total of 225 μL), and added into a 12-well Sabouraud dextrose agar plate.
# [3] = tested on: Aspergillus fumigatus; assay: In vitro antifungal activity test (MIC), Aspergillus fumigatus; conditions: concentration at which growth is inhibited by 50% vs negative control, 35° C., 48 hours, RPMI 1640, alama blue; for MIC50: Aspergillus fumigatus
# Protocol: The antifungal activities of the compounds of the present invention were evaluated using Candida albicans as yeast fungus, and Aspergillus fumigatus as a filamentous fungus. The above fungi used were all purchased from American Type Culture Collection (ATCC). The strains used in the experiment were inoculated into a Sabouraud dextrose agar medium, and then cultured at 35° C. for a sufficient period of time, e.g., 24 hours for Candida albicans, and about 7 days for Aspergillus fumigatus. As for Candida albicans, about 5 to 7 single colonies were taken from the cultured medium, sufficiently suspended in 1 ml of 0.85% sterile saline solution, and adjusted to have an optical density of 0.095 to 0.107 at 530 nm. A preparation of a strain diluent was diluted in Roswell park memorial institute (RPMI) 1640 medium at a 1:10 ratio, and the resultant was diluted again at a 1:100 ratio to obtain an inoculation preparation for Candida albicans with a concentration of 1.0×10^3 to 5.0×10^3 CFU/mL. As for Aspergillus fumigatus, the cultured Sabouraud dextrose agar was added with 1 mL of 0.2% Tween 20 diluted with 0.85% sterile saline solution, and then the plate was shaken to detach conidium from the plate. The solution collected from the plate surface was transferred into a sterile tube, and placed at room temperature for 5 minutes to deposit heavy substances. The resulting supernatant was transferred into the sterile tube, sufficiently suspended for about 15 seconds, and prepared a strain diluent with a concentration of 0.4×10^6 to 5.0×10^6 CFU/mL using a hemocytometer. The thus prepared strain diluent was diluted in RPMI 1640 medium at a 1:100 ratio to obtain an inoculation preparation for Aspergillus fumigatus. Candida albicans was cultured at 35° C. for 24 hours and Aspergillus fumigatus was cultured at 35° C. for 48 hours, and the concentrations, at which growth is inhibited by 80% or 50% compared to a negative control group, were determined using alama blue color developing reagent. All experiments were repeated twice for each concentration, and the results of antifungal activities (MIC80 MIC50 μg/mL) are shown in Tables 1 to 2.
MIC80 [1] [µg/mL],MIC50 [3] [µg/mL],SMILES,MFC [2] [µg/mL],Aspergillus fumigatus MIC50 [3] [µg/mL],Candida albicans MIC80 [1] [µg/mL],Candida albicans MFC [2] [µg/mL]
0.04,,"COc1ncc(NNC(=O)c2cc(-c3ccc(C#N)cc3)c(=O)n(C)c2)cc1F [Example 40, 5-(4-cyanophenyl)-N′-(5-fluoro-6-methoxypyridine-3-yl)-1-methyl-6-oxo-1,6-dihydropyridine-3-carbohydrazide]",0.2,,,
0.04,0.3,"COc1ncc(NNC(=O)c2cc(-c3ccc(F)cc3)c(=O)n(C)c2)cc1F [Example 37, N′-(5-fluoro-6-methoxypyridine-3-yl)-5-(4-fluorophenyl)-1-methyl-6-oxo-1,6-dihydropyridine-3-carbohydrazide]",0.1,,,
0.02,0.3,"COc1ncc(NNC(=O)c2cc(-c3ccc(Cl)cc3)c(=O)n(C)c2)cc1F [Example 38, 5-(4-chlorophenyl)-N′-(5-fluoro-6-methoxypyridine-3-yl)-1-methyl-6-oxo-1,6-dihydropyridine-3-carbohydrazide]",0.1,,,
0.03,0.44,"Cn1cc(C(=O)NNc2cc(F)cc(F)c2)ccc1=O [Example 13, N′-(3,5-difluorophenyl)-1-methyl-6-oxo-1,6-dihydropyridine-3-carbohydrazide]",0.1,,,
,,"CC[C@H](C)C[C@H](C)CCCCCCCCC(=O)N[C@H]1C[C@@H](O)[C@@H](NCCN)NC(=O)[C@@H]2[C@@H](O)CCN2C(=O)[C@H]([C@H](O)CCN)NC(=O)[C@H]([C@H](O)[C@@H](O)c2ccc(O)cc2)NC(=O)[C@@H]2C[C@@H](O)CN2C(=O)[C@H]([C@@H](C)O)NC1=O [caspofungin, reference compound]",,0.3,0.25,4
0.02,,"Cn1cc(C(=O)NNc2cccc(F)c2)ccc1=O [Example 2, N′-(3-fluorophenyl)-1-methyl-6-oxo-1,6-dihydropyridine-3-carbohydrazide]",0.1,,,
0.03,0.5,"COc1ncc(NNC(=O)c2ccc(=O)n(C)c2)cc1F [Example 21, N′-(5-fluoro-6-methoxypyridine-3-yl)-1-methyl-6-oxo-1,6-dihydropyridine-3-carbohydrazide]",0.1,,,
0.25,> 32,"OC(Cn1cncn1)(Cn1cncn1)c1ccc(F)cc1F [fluconazole, reference compound]",> 32,,,
0.05,0.1,"Cn1cc(C(=O)NNc2ccccc2F)ccc1=O [Example 1, N′-(2-fluorophenyl)-1-methyl-6-oxo-1,6-dihydropyridine-3-carbohydrazide]",,,,
0.13,0.5,"O=C(NNc1cccc(F)c1)c1c(Cl)cc(=O)n2c1CCC2 [Example 33, 7-chloro-N′-(3-fluorophenyl)-5-oxo-1,2,3,5-tetrahydroindolizine-8-carbohydrazide]",,,,
0.03,0.4,"Cn1cc(C(=O)NNc2ccc(F)nc2)ccc1=O [Example 18, N′-(6-fluoropyridine-3-yl)-1-methyl-6-oxo-1,6-dihydropyridine-3-carbohydrazide]",,,,
0.04,0.6,"COc1ncc(NNC(=O)c2ccc(=O)n(-c3cccc(Cl)c3)c2)cc1F [Example 48, 1-(3-chlorophenyl)-N′-(5-fluoro-6-methoxypyridine-3-yl)-6-oxo-1,6-dihydropyridine-3-carbohydrazide]",,,,
0.03,1.95,"Cn1cc(C(=O)NNc2ccc(Cl)cc2Cl)ccc1=O [Example 15, N′-(2,4-dichlorophenyl)-1-methyl-6-oxo-1,6-dihydropyridine-3-carbohydrazide]",,,,
0.04,0.7,"COc1ncc(NNC(=O)c2cc(-c3ccc(C(F)(F)F)cc3)c(=O)n(C)c2)cc1F [Example 39, N′-(5-fluoro-6-methoxypyridine-3-yl)-1-methyl-6-oxo-5-(4-(trifluoromethyl)phenyl)-1,6-dihydropyridine-3-carbohydrazide]",0.2,,,
